Earlier results on one compound are cited in patent US5965423A, “Human lysophospholipase” (Incyte Pharmaceuticals, Inc., priority 1998, dated 1999).

The data set deals with T1, monomeric, 24 kD lysophospholipase (LPL) from rat liver (Rattus norvegicus, UniProt P70470).
T1 construct: isolated a monomeric, 24 kD LPL from rat liver; host or cells: rat liver (tissue-purified enzyme, Sugimoto et al. 1996)
To be noted: substrate 1-palmitoyl-glycero-3-phosphocholine; substrate dependence curve sigmoidal.

T1 sequence (P70470 whole entry): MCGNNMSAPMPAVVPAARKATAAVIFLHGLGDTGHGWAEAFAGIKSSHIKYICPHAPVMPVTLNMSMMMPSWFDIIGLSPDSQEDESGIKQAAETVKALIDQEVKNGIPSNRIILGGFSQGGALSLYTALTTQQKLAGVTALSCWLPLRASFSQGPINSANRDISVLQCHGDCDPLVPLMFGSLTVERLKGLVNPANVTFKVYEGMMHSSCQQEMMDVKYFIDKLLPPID

The Km is the concentration of substrate that gives half-maximal velocity. Broadly, the Vmax is the top rate of the reaction or transport when substrate is in excess. For the compound `CCCCCCCCCCCCCCCC(=O)OCC(O)COP(=O)([O-])OCC[N+](C)(C)C` (centres unmarked) [1-palmitoyl-glycero-3-phosphocholine], the Km is 170 µM and the Vmax is 1.55 µM/min/mg.
